In patent US6838580B2, “Opioid derivative” (Teikoku Seiyaku Co., Ltd., priority 2002, dated 2005):
Entries after “also recorded” stand apart in the source; their conditions may differ. Marks after values point to notes of the source that are not given here.

Columns and labels:
δ-opioid receptor = biological target: T1, δ-opioid receptor (Mus musculus, UniProt P32300); assay: Mouse seminiferous tract (MVD) assay, inhibition of electrically stimulated constriction; format: cell-based; conditions: agonist activity, read-out: MVD (IC50 ± S.E.)
T1 construct: using mouse seminiferous tract in place of guinea pig ileum; from tissue; host or cells: mouse seminiferous tract (vas deferens, MVD), organ bath

SD Male rats [1] = assay: Analgesic effect, Randoll-Seritto hind limb pressure method, intracerebroventricular administration; format: in vivo; conditions: rat, i.c.v.
Description: (§1) SD Male rats, weighing 110 to 130 g, were used. One group consisted of five rats. The analgesic effects were examined by a Randoll-Seritto method. […] The threshold was expressed in mm Hg. During the measurement, the upper limit of the pressure applied to a hind limb was 100 mm Hg in order to avoid damage of the tissues.
1) When performing intracerebroventricular administration (i.c.v.), a rat was fixed to a brain stereotactic fixing apparatus under slight ether anesthesia, the skin at a head was dissected, and an administration cannula was inserted into a place at a transverse of […] from a bregma position and a depth of 3.5 to 4.0 mm. The administration volume was 10 μl/animal. Observation of the analgesic action was performed before administration, and at 30 minutes, and 1, 2, 3, 4 and 5 hours after administration. Doses of both compounds were 0.1, 1 and 10 μg/animal. Separately, a group to which 5 mg/kg of naltrexone hydrochloride was administered subcutaneously immediately after compound of Ex.1 10 μg/animal i.c.v and a group to which 5 mg/kg of naltrexone hydrochloride was administered subcutaneously immediately after compound of Ex.4 10 μg/animal i.c.v. was made. In addition, as morphine hydrochloride at a dose of 3 μg/animal i.c.v. group was used as a positive control group and a physiological saline 10 μl/animal i.c.v. group as a control group was made, respectively.
(§2) In order to perform a significant difference test between respective administration groups and control groups, and between values at respective times before administration and after administration, a Dunnet multiple comparative test method was used. In the statistical processing for performing a significant difference test between morphine hydrochloride administration groups and control groups, Student t-test was used. For performing a significant difference test between values at respective times before administration and after administration in morphine hydrochloride administration groups, a Dunnet multiple comparative test method was used. A significant level was at 5 or lower % risk rate (two-tailed test).

SD Male rats [2] = assay: Analgesic effect, Randoll-Seritto hind limb pressure method, intravenous administration; format: in vivo; conditions: rat, i.v.
Method: as §1
(§3) 2) When administered intravenously (i.v.), a volume of 2 ml/kg weight was administered to a tail vein and, when administered subcutaneously (s.c.), a volume of 2 ml/kg weight was subcutaneously administered to the back. In the case of intravenous administration, a 1 mg/kg, 3 mg/kg or 10 mg/kg compound of Ex.1 administration group, a 1 mg/kg, 3 mg/kg or 10 mg/kg compound of Ex.4 administration group, a 2 ml/kg physiological saline administration group and a 5 mg/kg morphine hydrochloride administration group were made, respectively. In the case of subcutaneous administration, a 10 mg/kg, 30 mg/kg or 100 mg/kg compound of Ex.1 administration group, a 10 mg/kg, 30 mg/kg or 100 mg/kg compound of Ex.4 administration group, a 2 ml/kg physiological saline administration group and a 5 mg/kg morphine hydrochloride administration group were made, respectively. Observation of the analgesic action was performed 15 minutes, 30 minutes, 1 hour and 2 hours after administration in the case of intravenous administration, 30 minutes, 1 hour, 2 hours and 3 hours after administration in the case of subcutaneous administration, respectively.
as §2

SD Male rats [3] = assay: Analgesic effect, Randoll-Seritto hind limb pressure method, subcutaneous administration; format: in vivo; conditions: rat, s.c.
Method: as §1, §3, §2

[4] = 10 mg/kg, before administration

T1 sequence (P32300 whole entry): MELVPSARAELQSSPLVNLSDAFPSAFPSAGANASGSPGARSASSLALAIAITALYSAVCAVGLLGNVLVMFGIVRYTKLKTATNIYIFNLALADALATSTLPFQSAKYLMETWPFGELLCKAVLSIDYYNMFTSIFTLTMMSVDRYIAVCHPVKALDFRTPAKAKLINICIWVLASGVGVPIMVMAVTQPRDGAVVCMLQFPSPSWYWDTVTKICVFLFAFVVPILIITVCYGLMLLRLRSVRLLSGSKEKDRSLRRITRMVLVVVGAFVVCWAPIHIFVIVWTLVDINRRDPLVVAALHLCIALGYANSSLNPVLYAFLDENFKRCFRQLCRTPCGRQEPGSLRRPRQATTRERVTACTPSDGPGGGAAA

Cc1cc(O)cc(C)c1C[C@H](N)C(=O)NCCCCCCNC(=O)[C@@H](N)Cc1c(C)cc(O)cc1C [Ex.4, 1,6-Bis(Dmt-amino)hexane.2HCl]
IC50 (δ-opioid receptor): > 10 µM
Threshold (mmHg) (SD Male rats [1]; 0.1 μg/animal, 0.5 hr): 47 ± 2 mmHg
Threshold (mmHg) (SD Male rats [1]; 0.1 μg/animal, 1 hr): 47 ± 1 mmHg
Threshold (mmHg) (SD Male rats [1]; 0.1 μg/animal, 2 hr): 50 ± 2 mmHg
Threshold (mmHg) (SD Male rats [1]; 0.1 μg/animal, 3 hr): 49 ± 2 mmHg
Threshold (mmHg) (SD Male rats [1]; 0.1 μg/animal, 4 hr): 49 ± 2 mmHg
Threshold (mmHg) (SD Male rats [1]; 0.1 μg/animal, 5 hr): 47 ± 1 mmHg
Threshold (mmHg) (SD Male rats [1]; 0.1 μg/animal, before administration): 45 ± 2 mmHg
Change in escape reaction threshold / analgesic effect, in words (SD Male rats [1]; 1 μg/animal): significant increase in the threshold was seen 4 hours and 5 hours after administration
Threshold (mmHg) (SD Male rats [1]; 1 μg/animal, 0.5 hr): 51 ± 2 mmHg
Threshold (mmHg) (SD Male rats [1]; 1 μg/animal, 1 hr): 51 ± 2 mmHg
Threshold (mmHg) (SD Male rats [1]; 1 μg/animal, 2 hr): 51 ± 3 mmHg
Threshold (mmHg) (SD Male rats [1]; 1 μg/animal, 3 hr): 50 ± 2 mmHg
Threshold (mmHg) (SD Male rats [1]; 1 μg/animal, 4 hr): 53 ± 2*^,$ mmHg
Threshold (mmHg) (SD Male rats [1]; 1 μg/animal, 5 hr): 52 ± 1*^,$ mmHg
Threshold (mmHg) (SD Male rats [1]; 1 μg/animal, before administration): 46 ± 1 mmHg
Change in escape reaction threshold / analgesic effect, in words (SD Male rats [1]; 10 μg/animal): significant change in the threshold was not seen at any time after administration
Threshold (mmHg) (SD Male rats [1]; 10 μg/animal + Naltrexon 5 mg/kg s.c., 0.5 hr): 55 ± 2*^,$ mmHg
Threshold (mmHg) (SD Male rats [1]; 10 μg/animal + Naltrexon 5 mg/kg s.c., 1 hr): 52 ± 2*^,$ mmHg
Threshold (mmHg) (SD Male rats [1]; 10 μg/animal + Naltrexon 5 mg/kg s.c., 2 hr): 51 ± 2 mmHg
Threshold (mmHg) (SD Male rats [1]; 10 μg/animal + Naltrexon 5 mg/kg s.c., 3 hr): 51 ± 1 mmHg
Threshold (mmHg) (SD Male rats [1]; 10 μg/animal + Naltrexon 5 mg/kg s.c., 4 hr): 52 ± 1*^,$ mmHg
Threshold (mmHg) (SD Male rats [1]; 10 μg/animal + Naltrexon 5 mg/kg s.c., 5 hr): 50 ± 1 mmHg
Threshold (mmHg) (SD Male rats [1]; 10 μg/animal + Naltrexon 5 mg/kg s.c., before administration): 46 ± 1 mmHg
Change in escape reaction threshold / analgesic effect, in words (SD Male rats [1]; 10 μg/animal followed by naltrexone 5 mg/kg s.c.): significant increase in the threshold was seen 30 minutes, 1 hour and 4 hours after administration
Threshold (mmHg) (SD Male rats [1]; 10 μg/animal, 0.5 hr): 50 ± 2 mmHg
Threshold (mmHg) (SD Male rats [1]; 10 μg/animal, 1 hr): 47 ± 0 mmHg
Threshold (mmHg) (SD Male rats [1]; 10 μg/animal, 2 hr): 49 ± 2 mmHg
Threshold (mmHg) (SD Male rats [1]; 10 μg/animal, 3 hr): 48 ± 2 mmHg
Threshold (mmHg) (SD Male rats [1]; 10 μg/animal, 4 hr): 48 ± 2 mmHg
Threshold (mmHg) (SD Male rats [1]; 10 μg/animal, 5 hr): 49 ± 1 mmHg
Threshold (mmHg) (SD Male rats [1]; 10 μg/animal, before administration): 46 ± 1 mmHg
Threshold (mmHg) (SD Male rats [2]; 3 mg/kg, 0.25 hr): 57 ± 4 mmHg
Threshold (mmHg) (SD Male rats [2]; 3 mg/kg, 0.5 hr): 54 ± 3 mmHg
Threshold (mmHg) (SD Male rats [2]; 3 mg/kg, 1 hr): 54 ± 5 mmHg
Threshold (mmHg) (SD Male rats [2]; 3 mg/kg, 2 hr): 53 ± 3 mmHg
Threshold (mmHg) (SD Male rats [2]; 3 mg/kg, before administration): 48 ± 2 mmHg
Threshold (mmHg) (SD Male rats [2]; 10 mg/kg, 0.25 hr): 54 ± 3 mmHg
Threshold (mmHg) (SD Male rats [2]; 10 mg/kg, 0.5 hr): 53 ± 3 mmHg
Threshold (mmHg) (SD Male rats [2]; 10 mg/kg, 1 hr): 57 ± 2 mmHg
Threshold (mmHg) (SD Male rats [2]; 10 mg/kg, 2 hr): 52 ± 2 mmHg
Threshold (mmHg) (SD Male rats [2]; [4]): 49 ± 2 mmHg
Change in escape reaction threshold / analgesic effect, in words (SD Male rats [2]; all doses (1, 3, 10 mg/kg)): significant change in the threshold was not seen at any measuring time at any dose; also recorded: no analgesic effect was seen
Analgesic effect compared with compound of Ex.1, in words (SD Male rats [3]): weaker and has a shorter duration time than in compound of Ex.1
Change in escape reaction threshold / analgesic effect, in words (SD Male rats [3]; 10 mg/kg): tendency of a slight increase in the threshold was seen
Threshold (mmHg) (SD Male rats [3]; 10 mg/kg, 0.5 hr): 58 ± 3 mmHg
Threshold (mmHg) (SD Male rats [3]; 10 mg/kg, 1 hr): 58 ± 5 mmHg
Threshold (mmHg) (SD Male rats [3]; 10 mg/kg, 2 hr): 55 ± 5 mmHg
Threshold (mmHg) (SD Male rats [3]; 10 mg/kg, 3 hr): 53 ± 1 mmHg
Threshold (mmHg) (SD Male rats [3]; [4]): 47 ± 2 mmHg
Change in escape reaction threshold / analgesic effect, in words (SD Male rats [3]; 30 mg/kg): significant increase was seen 2 hours after administration; also recorded: exhibited the significant analgesic effect 2 hours after administration
Threshold (mmHg) (SD Male rats [3]; 30 mg/kg, 0.5 hr): 59 ± 3 mmHg
Threshold (mmHg) (SD Male rats [3]; 30 mg/kg, 1 hr): 56 ± 3 mmHg
Threshold (mmHg) (SD Male rats [3]; 30 mg/kg, 2 hr): 65 ± 5^$$ mmHg
Threshold (mmHg) (SD Male rats [3]; 30 mg/kg, 3 hr): 59 ± 4 mmHg
Threshold (mmHg) (SD Male rats [3]; 30 mg/kg, before administration): 47 ± 2 mmHg
Change in escape reaction threshold / analgesic effect, in words (SD Male rats [3]; 100 mg/kg): significant difference was seen in the measured values 30 minutes, 1 hour and 2 hours after administration; also recorded: significant analgesic effect was exhibited from 30 minutes after administration
Threshold (mmHg) (SD Male rats [3]; 100 mg/kg, 0.5 hr): 69 ± 6**^,$$ mmHg
Threshold (mmHg) (SD Male rats [3]; 100 mg/kg, 1 hr): 68 ± 3*^,$ mmHg
Threshold (mmHg) (SD Male rats [3]; 100 mg/kg, 2 hr): 75 ± 8**^,$$ mmHg
Threshold (mmHg) (SD Male rats [3]; 100 mg/kg, 3 hr): 58 ± 2 mmHg
Threshold (mmHg) (SD Male rats [3]; 100 mg/kg, before administration): 48 ± 2 mmHg
